Measurements reported in EP0590919A1, “Therapeutic agents for parkinson's disease” (KYOWA HAKKO KOGYO CO., LTD., priority 1992, dated 1994).

Columns and labels:
A₂ receptor = biological target: T1, A₂ receptor (Rattus norvegicus, UniProt P30543); test: Adenosine A₂ receptor binding test (³H-NECA binding); details: ³H-NECA binding, rat corpus striatum, read-out: Inhibition (%) A₂ Receptor; for inhibition at 100 µM: 10⁻⁴M; for inhibition at 10 µM: 10⁻⁵M; for inhibition at 1 µM: 10⁻⁶M; for inhibition at 0.1 µM: 10⁻⁷M
T1 construct: from tissue; host or cells: rat corpus striatum membrane preparation
Experimental: The similar procedure as in the above-described adenosine A₁ receptor binding test was repeated using rat corpus striatum to obtain the final precipitate of the tissue thereof. The precipitate was suspended in 50 mM Tris HCl buffer containing 10 mM magnesium chloride and 0.02 unit/mg tissue of adenosine deaminase (manufactured by Sigma Co.) to give a tissue concentration of 5 mg (wet weight)/ml.
The mixture solution was allowed to stand at 25°C for 120 minutes and then treated in the same manner as in the adenosine A₁ receptor binding test to determine the radioactivity bound to the A₂ receptors.
The inhibition rate of the test compound against the binding of A₂ receptor (³H-NECA binding) was calculated by the following equation: [formula] [Notes] • 1.

[1] = test system: Haloperidol-Induced Catalepsy; test: Effect on haloperidol-induced catalepsy; assay type: in vivo, mice; details: for Number of the Animals Showing Remission: of five mice, catalepsy score not more than 4 points; for Number of the Animals Showing Remission / Remission Rate (%) / Total Score: 10 mg/kg orally; for Remission Rate (%): rate of decrease in total score based on control group; for Total Score: total catalepsy score of five mice (25 points at the full), haloperidol 1.0 mg/kg i.p.; for ED50: Mus musculus, 1 h, ten mice at each dose, effective = catalepsy score 3 or less, Probit analysis, oral, read-out: ED₅₀
Experimental: Haloperidol (Janssen Pharmaceutica) suspended in 0.3% CMC was intraperitoneally administered to each mouse at a dose of 1.0 mg/kg. Test compounds were suspended in 0.3% CMC or in injectable distilled water (Otsuka Pharmaceutical Co., Ltd.) containing Tween 80. L-DOPA (Kyowa Hakko Kogyo Co., Ltd.) and benserazide hydrochloride (Kyowa Hakko Kogyo Co., Ltd.) were suspended in 0.3% CMC. One hour after the haloperidol administration, the test compound suspensions and the control suspension [injectable distilled water (Otsuka Pharmaceutical Co., Ltd.) containing Tween 80] containing no test compound were orally administered to separate groups of the mice (0.1 ml per 10 g of body weight). One hour after the administration of the test compound, the forelimbs of each mouse and subsequently the hindlimbs of the same mouse were placed on a 4.5 cm-high, 1.0 cm-wide bar and catalepsy was estimated. […] The catalepsy score and the standard of judgment are shown below. […] The number of the animals showing remission against catalepsy is the number of the mice for which the catalepsy score was not more than 4 points. […] The ED₅₀ values were calculated by Probit analysis.

dd-strain male mice = test: Acute toxicity test (minimum lethal dose, oral); assay type: in vivo; details: oral administration, three mice per group, mortality seven days after administration
Experimental: Test compounds were orally administered to groups of dd-strain male mice weighing 20 ± 1 g, each group consisting of three mice. Seven days after the administration, minimum lethal dose (MLD) of each compound was determined by observing the mortality.

T1 sequence (P30543 whole entry): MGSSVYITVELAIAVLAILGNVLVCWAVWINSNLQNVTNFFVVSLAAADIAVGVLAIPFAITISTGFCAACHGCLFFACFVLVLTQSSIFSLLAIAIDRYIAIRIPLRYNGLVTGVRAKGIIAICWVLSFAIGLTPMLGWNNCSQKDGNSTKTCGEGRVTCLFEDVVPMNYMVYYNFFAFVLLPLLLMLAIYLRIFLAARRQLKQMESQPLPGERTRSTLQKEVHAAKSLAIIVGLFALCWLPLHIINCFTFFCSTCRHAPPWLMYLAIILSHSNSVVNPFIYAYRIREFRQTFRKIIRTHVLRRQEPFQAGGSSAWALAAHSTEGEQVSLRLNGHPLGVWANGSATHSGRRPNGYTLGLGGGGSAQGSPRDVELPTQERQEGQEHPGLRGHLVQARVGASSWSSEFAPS

| Compound | inhibition at 100 µM (A₂ receptor) [%] | inhibition at 10 µM (A₂ receptor) [%] | Number of the Animals Showing Remission [1] | Remission Rate (%) [1] [%] | Total Score [1] | MLD (dd-strain male mice) [mg/kg] | ED50 [1] [mg/kg] | inhibition at 1 µM (A₂ receptor) [%] | inhibition at 0.1 µM (A₂ receptor) [%] |
| --- | --- | --- | --- | --- | --- | --- | --- | --- | --- |
| CCn1c(=O)c2[nH]c(/C=C/c3cccc(OC)c3[N+](=O)[O-])nc2n(CC)c1=O [Compound 63, (E)-1,3-Diethyl-8-(3-methoxy-2-nitrostyryl)xanthine] | 79 | 74 | 3 | 32 | 17 | > 300 | – | – | – |
| CCn1c(=O)c2c(nc(/C=C/c3cc(C)c(OC)cc3C)n2C)n(CC)c1=O [Compound 12, (E)-1,3-Diethyl-8-(4-methoxy-2,5-dimethylstyryl)-7-methylxanthine] | – | – | 5 | 52 | 12 | > 300 | 2.7 | – | – |
| CCOc1ccc(/C=C/c2nc3c(c(=O)n(CC)c(=O)n3CC)n2C)cc1 [Compound 36, (E)-8-(4-Ethoxystyryl)-1,3-diethyl-7-methylxanthine] | – | – | 5 | 76 | 6 | > 300 | 1.5 | 101 | 71 |
| CCn1c(=O)c2c(nc(/C=C/c3cc(OC)cc(OC)c3)n2C)n(CC)c1=O [Compound 68, (E)-8-(3,5-Dimethoxystyryl)-1,3-diethyl-7-methylxanthine] | – | – | 5 | 80 | 5 | > 300 | – | 88 | 81 |
| CCn1c(=O)c2c(nc(/C=C/c3cc(C)ccc3C)n2C)n(CC)c1=O [Compound 34, (E)-8-(2,5-Dimethylstyryl)-1,3-diethyl-7-methylxanthine] | 94 | 90 | 5 | 68 | 8 | > 300 | 2.6 | 93 | 86 |
| COc1ccc(/C=C/c2nc3c(c(=O)n(C)c(=O)n3C)n2C)c(OC)c1C [Compound 32, (E)-8-(2,4-Dimethoxy-3-methylstyryl)caffeine] | 98 | 82 | 4 | 32 | 17 | > 100 | – | 84 | 83 |
| CCn1c(=O)c2c(nc(/C=C/c3ccc(OC)cc3OC)n2C)n(CC)c1=O [Compound 6, (E)-8-(2,4-Dimethoxystyryl)-1,3-diethyl-7-methylxanthine] | – | – | 5 | 76 | 6 | > 300 | 1.7 | – | – |
| CCn1c(=O)c2[nH]c(/C=C/c3cc(OC)cc(OC)c3)nc2n(CC)c1=O [Compound 67, (E)-8-(3,5-Dimethoxystyryl)-1,3-diethylxanthine] | – | – | 5 | 64 | 9 | > 100 | – | 73 | 73 |
| CCCOc1ccc(/C=C/c2nc3c([nH]2)c(=O)n(CC)c(=O)n3CC)cc1 [Compound 37, (E)-1,3-Diethyl-8-(4-propoxystyryl)xanthine] | – | – | – | – | – | > 100 | – | 60 | 56 |
| CCn1c(=O)c2c(nc(/C=C/c3cccc(Cl)c3)n2C)n(CC)c1=O [Compound 70, (E)-8-(3-Chlorostyryl)-1,3-diethyl-7-methylxanthine] | – | – | 4 | 44 | 14 | > 300 | – | 84 | 76 |
| COc1ccc(/C=C/c2nc3c(c(=O)n(C)c(=O)n3C)n2C)c(Cl)c1OC [Compound 52, (E)-8-(2-Chloro-3,4-dimethoxystyryl)caffeine] | 83 | 81 | 5 | 60 | 10 | > 300 | 1.7 | 88 | 78 |
| CCn1c(=O)c2c(nc(/C=C/c3ccc(F)c(F)c3)n2C)n(CC)c1=O [Compound 54, (E)-8-(3,4-Difluorostyryl)-1,3-diethyl-7-methylxanthine] | 96 | 95 | 5 | 28 | 18 | > 300 | – | 94 | 63 |
| CCn1c(=O)c2c(nc(/C(F)=C\c3ccccc3)n2C)n(CC)c1=O [Compound 76, (E)-1,3-Diethyl-8-(α-fluorostyryl)-7-methylxanthine] | – | – | 4 | 40 | 15 | > 100 | – | 69 | 30 |
| COc1ccc(/C=C/c2nc3c([nH]2)c(=O)n(C)c(=O)n3C)c(OC)c1C [Compound 31, (E)-8-(2,4-Dimethoxy-3-methylstyryl)theophylline] | 79 | 89 | 4 | 36 | 16 | > 100 | – | 82 | 74 |
| CCn1c(=O)c2c(nc(/C=C/c3ccc(OC)c(Br)c3)n2C)n(CC)c1=O [Compound 56, (E)-8-(3-Bromo-4-methoxystyryl)-1,3-diethyl-7-methylxanthine] | 99 | 97 | 5 | 44 | 14 | > 100 | – | 92 | 74 |
| CCn1c(=O)c2[nH]c(/C=C/c3ccc(N(C)C)cc3)nc2n(CC)c1=O [Compound 99, (E)-8-[4-(N,N-Dimethylamino)styryl]-1,3-diethylxanthine] | – | – | – | – | – | > 100 | – | 64 | 25 |
| CCn1c(=O)c2c(nc(/C=C/c3ccc(OC)c(OC)c3Cl)n2C)n(CC)c1=O [Compound 50, (E)-8-(2-Chloro-3,4-dimethoxystyryl)-1,3-diethyl-7-methylxanthine] | 93 | 88 | 4 | 24 | 19 | > 300 | 3.8 | 95 | 88 |
| COc1ccc(/C=C/c2nc3c([nH]2)c(=O)n(C)c(=O)n3C)c(OC)c1 [Compound 27, (E)-8-(2,4-Dimethoxystyryl)theophylline] | 90 | 89 | – | – | – | > 100 | – | – | – |
| CCCOc1ccc(/C=C/c2nc3c(c(=O)n(CC)c(=O)n3CC)n2C)cc1 [Compound 38, (E)-1,3-Diethyl-7-methyl-8-(4-propoxystyryl)xanthine] | – | – | 4 | 68 | 8 | > 300 | 2.5 | 94 | 71 |
